{
  "source": "patent US4740501A",
  "about": "(priority 1985, dated 1988)",
  "key": {"[1]": {"test_system": "L-1210 leukemia cells", "assay": "Tumor cell survival after pulse treatment", "format": "cell-based, Mouse", "conditions": "for Percent Tumor Cell Survival: viability 24 hr later", "protocol": "All rabbit, marmoset and human lymphoid in vitro cell lines, murine L-1210 leukemia and primary human leukemias were treated at cell concentrations of 6-10×10^5 cells/ml. The tripeptide was added to the cell suspensions to yield final concentrations of 1 to 50 ug/ml. Cultures were treated at 37° C. for periods ranging between 15 min to 24 hr. Following treatment, aliquots were removed and centrifuged at 800 rpm for 9 min, at 5° C. Treatment media were gently aspirated and the lymphoid cells resuspended in fresh growth media and reincubated at 37° C. Culture media were changed daily by gently pelleting the cells and exchanging 60-70% of the spent supernatant with fresh media.\nSurvival of tumor cell layers or suspensions was ascertained using 0.5% trypan blue in 0.1M phosphate-buffered saline, pH 7.25. Cell layers were released from the Multidish-4 wells with 0.5 ml STV, diluted 2 to 10 fold with the vital strain; tumor cells in suspension cultures were directly mixed 1:1 with the trypan blue dye. Tumor cells were enumerated using a haemocytometer; all 10 fields were counted for every sample. Percent viable cells was determined by direct comparison of the numbers of cells excluding trypan blue in treated cultures to those in untreated or diluent-treated parallel cultures. There were no significant differences in the viability of cells treated with diluent when compared to untreated cells.\nTo delineate the minimum concentration and duration of the tripeptide compound exposure to induce cytolysis, MJY-alpha and B-16 melanoma cell layers and L-1210 leukemia cell suspensions were exposed to 0.5 to 50 ug of the tripeptide compound per ml of solvent for 0.25 to 4 hours. The tripeptide compound was then removed and the cells washed and reincubated in media growth. Tumor cell viability was determined 24 hrs after pulse tripeptide compound exposure. Cell survival of all three tumor cell lines was reduced by an exposure period of as short as 15 min (Table 4). The degree of cytolysis increased with extension of the treatment periods from 15 min to 4 hrs, although the decreases in cell survival were not proportional to the duration of the exposure. […] Comparison of the data in Tables 2 and 4 reveal that cells exposed to the tripeptide compound for one hour were irreversibly damaged when assayed a day later despite their apparent viability immediately after treatment.\nThe reversibility of the cancericidal activity of the tripeptide compounds on L-1210 leukemia, MJY-alpha mammary tumor and B-16 melanoma cells was also monitored in the nonhostile tissue culture environment. Cell suspensions of these tumor models were treated with tripeptide for 15 to 240 min, washed and either inoculated into mice or maintained as suspension (L-1210) or monolayer cultures (MJY-alpha and B-16). Reductions in tumor cells survival were negligible (0-6%) in all three tumor systems at initiation of in vitro cultures following treatment with 50 ug tripeptide/ml for as long as 4 hrs. However, significant decreases in cellular viabilities of L-1210 leukemia (FIG. 9), MJY-alpha mammary tumor (FIG. 10) and B-16 melanoma (FIG. 11) tumor cells were observed 24 hr following tripeptide exposure and for the next 6 days."}, "[2]": {"test_system": "Raji B-lymphoma", "assay": "Tumor cell survival (trypan blue), continuous exposure", "format": "cell-based, Human"}, "[3]": {"test_system": "B-type mouse mammary tumor virus particles in MJY-alpha cells", "assay": "Electron microscopy of thin sections", "format": "cell-based", "conditions": "25 ug/ml for 2 hours", "protocol": "Thin sections MJY-alpha mammary tumor cells were prepared according to standard techniques for electronmicroscopy. The magnification was scaled where the bar was equal to one um. […] The tumor virus particles are shown in the insert and also throughout the lower two-thirds of the photograph as rope-like sections. […] It should be noted that numerous microvilli are present with budding particles also in evidence. […] After that treatment period, the layer of cells was washed and then reincubated for one (1) day prior to further processing for electronmicroscopy. Although there are some microvilli with budding particles present, the number of such particles and buds is reduced. […] The layer was then similarily washed and reincubated for a two (2) days prior to further processing for electronmicroscopy."}, "[4]": {"test_system": "B-16 melanoma cells", "assay": "Bioassay of tumorigenicity of in vitro treated tumor cells in syngeneic hosts", "format": "in vivo, C57BL/6 mice", "conditions": "for MEAN SURVIVAL TIME (MST) of recipients: control 28", "from_the_text": "Suspensions of untreated and tripeptide treated MJY-alpha mammary tumor, B-16 melanoma, and L-1210 leukemia cells were adjusted to a concentration of 1×10^7 cells/ml based on the initial tumor cell concentration before the tripeptide exposure. Tumor cells were inoculated into syngeneic hosts at a concentration of 1×10^6 cells in […]. Female BALB/c/Crgl recipients of MJY-alpha mammary tumor cells and male C57BL/6/Jx hosts receiving B16 melanoma cells were inoculated subcutaneously; BDf1 mice were given intraperitoneal injections of L-1210 cells. Subcutaneous tumors were measured along their long and short axes every 1 to 3 days; tumor size is reported as the product of the two measurements (mm^2). The examination periods for mice receiving L-1210, MJY-alpha and B-16 tumor grafts were 45, 80, and 85 days, respectively. All mice were autopsied at the time of death or sacrifice."}},
  "data": [
    {"smiles": "CCOC(=O)[C@H](CCSC)NC(=O)[C@H](Cc1cccc(N(CCCl)CCCl)c1)NC(=O)[C@@H](N)Cc1ccc(F)cc1.Cl", "note": "[PTT.119, 3-(p-fluorophenyl)-L-alanyl-3-[m-bis(2-chloroethyl)aminophenyl]-L-alanyl-L-methionine ethyl ester hydrochloride]", "values": [
      {"measurement": "Percent Tumor Cell Survival", "setting": "[1]; L-1210, 1 ug/ml, pulse 1 hr", "value": 83, "unit": "%"},
      {"measurement": "Percent Tumor Cell Survival", "setting": "[1]; L-1210, 1 ug/ml, pulse 2 hr", "value": 78, "unit": "%"},
      {"measurement": "Percent Tumor Cell Survival", "setting": "[1]; L-1210, 1 ug/ml, pulse 4 hr", "value": 45, "unit": "%"},
      {"measurement": "Percent Tumor Cell Survival", "setting": "[1]; L-1210, 1 ug/ml, pulse .25 hr", "value": 80, "unit": "%"},
      {"measurement": "Percent Tumor Cell Survival", "setting": "[1]; L-1210, 1 ug/ml, pulse .5 hr", "value": 87, "unit": "%"},
      {"measurement": "Percent Tumor Cell Survival", "setting": "[1]; L-1210, 5 ug/ml, pulse 1 hr", "value": 61, "unit": "%"},
      {"measurement": "Percent Tumor Cell Survival", "setting": "[1]; L-1210, 5 ug/ml, pulse 2 hr", "value": 57, "unit": "%"},
      {"measurement": "Percent Tumor Cell Survival", "setting": "[1]; L-1210, 5 ug/ml, pulse 4 hr", "value": 35, "unit": "%"},
      {"measurement": "Percent Tumor Cell Survival", "setting": "[1]; L-1210, 5 ug/ml, pulse .25 hr", "value": 72, "unit": "%"},
      {"measurement": "Percent Tumor Cell Survival", "setting": "[1]; L-1210, 5 ug/ml, pulse .5 hr", "value": 60, "unit": "%"},
      {"measurement": "Percent Tumor Cell Survival", "setting": "[1]; L-1210, 10 ug/ml, pulse 1 hr", "value": 27, "unit": "%"},
      {"measurement": "Percent Tumor Cell Survival", "setting": "[1]; L-1210, 10 ug/ml, pulse 2 hr", "value": 31, "unit": "%"},
      {"measurement": "Percent Tumor Cell Survival", "setting": "[1]; L-1210, 10 ug/ml, pulse 4 hr", "value": 37, "unit": "%"},
      {"measurement": "Percent Tumor Cell Survival", "setting": "[1]; L-1210, 10 ug/ml, pulse .25 hr", "value": 53, "unit": "%"},
      {"measurement": "Percent Tumor Cell Survival", "setting": "[1]; L-1210, 10 ug/ml, pulse .5 hr", "value": 40, "unit": "%"},
      {"measurement": "Percent Tumor Cell Survival", "setting": "[1]; L-1210, 20 ug/ml, pulse 1 hr", "value": 0, "unit": "%"},
      {"measurement": "Percent Tumor Cell Survival", "setting": "[1]; L-1210, 20 ug/ml, pulse .25 hr", "value": 0, "unit": "%"},
      {"measurement": "Percent Tumor Cell Survival", "setting": "[1]; L-1210, 20 ug/ml, pulse .5 hr", "value": 0, "unit": "%"},
      {"measurement": "Percent Tumor Cell Survival", "setting": "[1]; L-1210, 25 ug/ml, pulse 1 hr", "value": 0, "unit": "%"},
      {"measurement": "Percent Tumor Cell Survival", "setting": "[1]; L-1210, 25 ug/ml, pulse 2 hr", "value": 0, "unit": "%"},
      {"measurement": "Percent Tumor Cell Survival", "setting": "[1]; L-1210, 25 ug/ml, pulse 4 hr", "value": 0, "unit": "%"},
      {"measurement": "Percent Tumor Cell Survival", "setting": "[1]; L-1210, 25 ug/ml, pulse .25 hr", "value": 20, "unit": "%"},
      {"measurement": "Percent Tumor Cell Survival", "setting": "[1]; L-1210, 25 ug/ml, pulse .5 hr", "value": 7, "unit": "%"},
      {"measurement": "reductions in tumor cell survival at initiation of in vitro cultures", "setting": "[1]; L-1210, 50 ug/ml for as long as 4 hrs (all three tumor systems)", "value": "0-6%"},
      {"measurement": "Percent Tumor Cell Survival", "setting": "[1]; L-1210, .5 ug/ml, pulse 1 hr", "value": 83, "unit": "%"},
      {"measurement": "Percent Tumor Cell Survival", "setting": "[1]; L-1210, .5 ug/ml, pulse 2 hr", "value": 94, "unit": "%"},
      {"measurement": "Percent Tumor Cell Survival", "setting": "[1]; L-1210, .5 ug/ml, pulse 4 hr", "value": 68, "unit": "%"},
      {"measurement": "Percent Tumor Cell Survival", "setting": "[1]; L-1210, .5 ug/ml, pulse .25 hr", "value": 95, "unit": "%"},
      {"measurement": "Percent Tumor Cell Survival", "setting": "[1]; L-1210, .5 ug/ml, pulse .5 hr", "value": 90, "unit": "%"},
      {"measurement": "L-1210 cells destroyed compared to mammary tumor and melanoma cells", "setting": "[1]; any given concentration, 30 min or 1 hr pulse, 5 days", "value": "approximately 5 times"},
      {"measurement": "% tumor cell survival", "setting": "[2]; 10 ug/ml, 1 hr", "value": 98, "unit": "%"},
      {"measurement": "% tumor cell survival", "setting": "[2]; 10 ug/ml, 4 hr", "value": 98, "unit": "%"},
      {"measurement": "% tumor cell survival", "setting": "[2]; 10 ug/ml, 24 hr", "value": 82, "unit": "%"},
      {"measurement": "% tumor cell survival", "setting": "[2]; 25 ug/ml, 1 hr", "value": 100, "unit": "%"},
      {"measurement": "% tumor cell survival", "setting": "[2]; 25 ug/ml, 4 hr", "value": 97, "unit": "%"},
      {"measurement": "% tumor cell survival", "setting": "[2]; 25 ug/ml, 8 hr", "value": 97, "unit": "%"},
      {"measurement": "% tumor cell survival", "setting": "[2]; 25 ug/ml, 24 hr", "value": 35, "unit": "%"},
      {"measurement": "% tumor cell survival", "setting": "[2]; 50 ug/ml, 1 hr", "value": 94, "unit": "%"},
      {"measurement": "% tumor cell survival", "setting": "[2]; 50 ug/ml, 4 hr", "value": 90, "unit": "%"},
      {"measurement": "% tumor cell survival", "setting": "[2]; 50 ug/ml, 8 hr", "value": 76, "unit": "%"},
      {"measurement": "% tumor cell survival", "setting": "[2]; 50 ug/ml, 24 hr", "value": 20, "unit": "%"},
      {"measurement": "number of microvilli budding particles and buds", "setting": "[3]; reincubated 1 day", "value": "reduced"},
      {"measurement": "number of microvilli", "setting": "[3]; reincubated 2 days", "value": "reduced even farther"},
      {"measurement": "tumor growth in recipients", "setting": "[4]; 10^6 B-16 cells treated with 25 ug or higher for 30 to 240 min", "value": "complete absence of tumor growth"},
      {"measurement": "MEAN SURVIVAL TIME (MST) of recipients", "setting": "[4]; B-16, 5 ug/ml, 60 min", "value": 31, "unit": "days"},
      {"measurement": "MEAN SURVIVAL TIME (MST) of recipients", "setting": "[4]; B-16, 5 ug/ml, 120 min", "value": 33, "unit": "days"},
      {"measurement": "MEAN SURVIVAL TIME (MST) of recipients", "setting": "[4]; B-16, 5 ug/ml, 240 min", "value": 41, "unit": "days"},
      {"measurement": "MEAN SURVIVAL TIME (MST) of recipients", "setting": "[4]; B-16, 10 ug/ml, 30 min", "value": 35, "unit": "days"},
      {"measurement": "MEAN SURVIVAL TIME (MST) of recipients", "setting": "[4]; B-16, 10 ug/ml, 60 min", "value": 35, "unit": "days"},
      {"measurement": "MEAN SURVIVAL TIME (MST) of recipients", "setting": "[4]; B-16, 10 ug/ml, 120 min", "value": 35, "unit": "days"},
      {"measurement": "MEAN SURVIVAL TIME (MST) of recipients", "setting": "[4]; B-16, 10 ug/ml, 240 min", "value": 45, "unit": "days"},
      {"measurement": "MEAN SURVIVAL TIME (MST) of recipients", "setting": "[4]; B-16, 25 ug/ml, 30 min", "value": 52, "unit": "days"},
      {"measurement": "MEAN SURVIVAL TIME (MST) of recipients", "setting": "[4]; B-16, 25 ug/ml, 60 min", "value": 68, "unit": "days"},
      {"measurement": "MEAN SURVIVAL TIME (MST) of recipients", "setting": "[4]; B-16, 25 ug/ml, 120 min", "value": 65, "unit": "days"},
      {"measurement": "initial lag period between inoculation and appearance of palpable tumors", "setting": "[4]; B-16, increasing dosages, 2 hr treatment", "value": "lengthened"},
      {"measurement": "reduction of viable tumor cell population", "setting": "[4]; B-16, inferred from LD100 of 100 viable cells", "value": "at least 99.9%"},
      {"measurement": "tumor growth rates of untreated and treated cells", "setting": "[4]; B-16, once graft established", "value": "identical"}
    ]}
  ]
}
